Data: patent publication US7842703B2, “Substituted benzofused derivatives and their use as vanilloid receptor ligands” (Glenmark Pharmaceuticals S.A., priority 2005, dated 2010)
Where a name gives a salt, the structure may show the parent alone.

Target: T1, Human TRPV1 expressing CHO cells (Homo sapiens, UniProt Q8NER1)
T1 construct: expressed in transfected cells; host or cells: CHO cells under G-418 selection
Experiment: Screening for TRPV1 antagonist using the 45Calcium uptake assay (inhibition of capsaicin induced cellular uptake of radioactive calcium)
Format: cell-based
Conditions: for inhibition at 1 µM: CHO, test compound 1 μM, capsaicin 250 nM, relative to maximum ^45Ca uptake induced by capsaicin alone; for IC50: inhibition of capsaicin (250 nM) induced ^45Ca uptake
Protocol: The inhibition of TRPV1 receptor activation was followed as inhibition of capsaicin induced cellular uptake of radioactive calcium which represents calcium influx exclusively through the plasma membrane associated TRPV1 receptor.
Stock solution of capsaicin was made in ethanol and test compounds in 100% DMSO. Stock solutions were diluted to appropriate final concentrations in assay buffer keeping the final DMSO concentration between 0.1% and 0.55%.
^45Ca was used at a final concentration of 2.5 μCi/ml (^45Ca, ICN).
Assay buffer was composed of F-12 DMEM medium supplemented with 1.8 mM CaCl2 (final conc.) and 0.1% Bovine serum albumin. (BSA from SIGMA)
Wash buffer was tyrodes solution supplemented with 0.1% BSA and 1.8 mM calcium. Lysis buffer contained 50 mM Tris-HCl, pH7.5, 150 mM NaCl, 1% Triton X-100, 0.5% deoxycholate and 0.1% Sodium dodicyl sulphate (SDS, SIGMA)
Assay was carried out with some modifications the of procedure as described by Toth et. al. (See Toth A et. al., Life Sciences 73 p 487-498, 2003). Human TRPV1 expressing CHO cells were grown in F-12 DMEM (Dulbecco's modified Eagle's medium—GIBCO) medium with 10% FBS (fetal bovine serum Hyclone), 1% penicillin-streptomycin solution, 400 μg/ml of G-418. Cells were seeded 48 h prior to the assay in 96 well plates so as to get ˜50,000 cells per well on the day of experiment. Plates were incubated at 37° C. in the presence of 5% CO2. Cells were then washed twice with 200 μl of assay buffer and re-suspended in 144 μl of the same. Assay was carried out at 30° C. in total volume of 200 μl. Test compounds were added to the cells fifteen minutes before addition of capsaicin, Final concentration of capsaicin in the assay was 250 nM. After 5 minutes of agonist treatment, drug was washed out and wells rinsed with 300 μl of ice cold wash buffer 3×. The cells were lysed in 50 μl lysis buffer for 20 min. 40 μl of cell lysate was mixed with 150 μl of Microscint PS, left overnight for equilibration. Radioactivity in samples was measured as counts per minute (cpm) using Packard Biosciences Top Count. The drug/vehicle/capsaicin treated ^45Ca uptake values were normalized over basal ^45Ca value. Data was expressed as % inhibition of ^45Ca uptake by test compound with respect to maximum ^45Ca uptake induced by capsaicin alone. IC50 value was calculated from dose response curve by nonlinear regression analysis using GraphPadPRISM software.

T1 sequence (Q8NER1 whole entry): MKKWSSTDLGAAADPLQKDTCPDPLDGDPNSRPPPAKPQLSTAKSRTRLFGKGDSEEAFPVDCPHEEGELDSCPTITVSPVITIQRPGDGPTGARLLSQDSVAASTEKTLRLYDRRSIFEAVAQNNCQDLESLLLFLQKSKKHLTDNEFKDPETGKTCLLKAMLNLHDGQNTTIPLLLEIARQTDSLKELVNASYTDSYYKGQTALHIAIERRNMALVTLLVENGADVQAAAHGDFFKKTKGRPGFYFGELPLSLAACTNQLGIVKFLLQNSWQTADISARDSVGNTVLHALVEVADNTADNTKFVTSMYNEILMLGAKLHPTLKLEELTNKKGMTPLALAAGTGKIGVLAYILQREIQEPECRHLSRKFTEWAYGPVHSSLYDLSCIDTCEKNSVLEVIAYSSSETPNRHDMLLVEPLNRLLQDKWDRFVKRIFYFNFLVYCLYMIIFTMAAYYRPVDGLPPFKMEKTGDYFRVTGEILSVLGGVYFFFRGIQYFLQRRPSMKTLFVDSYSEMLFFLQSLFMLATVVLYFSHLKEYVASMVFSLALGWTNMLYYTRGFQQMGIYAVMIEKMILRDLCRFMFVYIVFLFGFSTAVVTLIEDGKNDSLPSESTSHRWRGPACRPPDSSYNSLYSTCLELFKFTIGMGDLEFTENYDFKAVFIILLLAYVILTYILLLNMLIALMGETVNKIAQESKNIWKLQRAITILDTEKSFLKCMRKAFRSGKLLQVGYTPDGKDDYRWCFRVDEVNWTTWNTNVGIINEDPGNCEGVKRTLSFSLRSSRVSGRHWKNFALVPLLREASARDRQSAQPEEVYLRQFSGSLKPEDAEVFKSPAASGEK

Compound | inhibition at 1 µM [%] | IC50 [nM]
O=C(Nc1cccc2cnccc12)NC1CC2(CCC2)Oc2ccc(O)cc21 (racemic) [Example 45, (±) 1-(3,4-Dihydro-6-hydroxy-spiro[2H-1-benzopyran-2,1′-cyclobutane]-4-yl)-3-(isoquinolin-5-yl)urea] | < 50 | 
O=C(Nc1cccc2cnccc12)NC1CC2(CCC2)Oc2c(Cl)cccc21 (racemic) [Example 49, (±) 1-(8-Chloro-3,4-dihydro-spiro[2H-1-benzopyran-2,1′-cyclobutane]-4-yl)-3-(isoquinolin-5-yl)urea] | > 50 | 29.9
O=C(Nc1cccc2cnccc12)NC1CC2(CCC2)Oc2ccc(OC3CCCC3)cc21 (racemic) [Example 52, (±) 1-(6-Cyclopentyloxy-3,4-dihydro-spiro[2H-1-benzopyran-2,1′-cyclobutane]-4-yl)-3-(isoquinolin-5-yl)urea] | < 50 | 
CNS(=O)(=O)c1ccc2c(c1)C(NC(=O)Nc1cccc3cnccc13)CC1(CCC1)O2 (racemic) [Example 55, (±) 1-(3,4-Dihydro-6-methylaminosulfonyl-spiro[2H-1-benzopyran-2,1′-cyclobutane]-4-yl)-3-(isoquinolin-5-yl)urea] | < 50 | 
Cc1cc2c(NC(=O)NC3CC4(CCC4)Oc4cc(Cl)ccc43)cccc2cn1 (racemic) [Example 57, (±) 1-(7-Chloro-3,4-dihydro-spiro[2H-1-benzopyran-2,1′-cyclobutane]-4-yl)-3-(3-methylisoquinolin-5-yl)urea] | > 50 | 442
N#Cc1cccc2c1OC1(CCC1)CC2NC(=O)Nc1cccc2cnccc12 (racemic) [Example 58, (±) 1-(8-Cyano-3,4-dihydro-spiro[2H-1-benzopyran-2,1′-cyclobutane]-4-yl)-3-(isoquinolin-5-yl)urea] | < 50 | 
O=C(Nc1cccc2cnccc12)NC1CC2(CCC2)Oc2c(Cl)cc(Cl)cc21 (racemic) [Example 66, (±) 1-(6,8-Dichloro-3,4-dihydro-spiro[2H-1-benzopyran-2,1′-cyclobutane]-4-yl)-3-(isoquinolin-5-yl)urea] | > 50 | 462
Cc1cc2c(cc1Br)C(NC(=O)Nc1cccc3cnccc13)CC1(CCC1)O2 (racemic) [Example 67, (±) 1-(6-Bromo-3,4-dihydro-7-methylspiro[2H-1-benzopyran-2,1′-cyclobutane]-4-yl)-3-(isoquinolin-5-yl)urea] | > 50 | 447
O=C(Nc1cccc2cnccc12)NC1CC2(CCC2)Oc2cc(Cl)c(Cl)cc21 (racemic) [Example 68, (±) 1-(6,7-Dichloro-3,4-dihydro-spiro[2H-1-benzopyran-2,1′-cyclobutane]-4-yl)-3-(isoquinolin-5-yl)urea] | > 50 | 222
Cc1cc2c(cc1Cl)C(NC(=O)Nc1cccc3cnccc13)CC1(CCC1)O2 (racemic) [Example 69, (±) 1-(6-Chloro-3,4-dihydro-7-methyl-spiro[2H-1-benzopyran-2,1′-cyclobutane]-4-yl)-3-(isoquinolin-5-yl)urea] | > 50 | 45
O=C(Nc1ccc(Cl)c2cnccc12)NC1CC2(CCC2)Oc2ccc(Cl)cc21 (racemic) [Example 70, (±) 1-(6-Chloro-3,4-dihydro-spiro[2H-1-benzopyran-2,1′-cyclobutane]-4-yl)-3-(8-chloroisoquinolin-5-yl)urea] | < 50 | 
O=C(Nc1ccc(Cl)c2cnccc12)NC1CC2(CCC2)Oc2ccc(F)cc21 (racemic) [Example 71, (±) 1-(6-Fluoro-3,4-dihydro-spiro[2H-1-benzopyran-2,1′-cyclobutane]-4-yl)-3-(8-chloroisoquinolin-5-yl)urea] | > 50 | 591
Cc1cc2c(NC(=O)NC3CC4(CCC4)Oc4ccc(F)cc43)cccc2cn1 (racemic) [Example 72, (±) 1-(3,4-Dihydro-6-fluoro-spiro[2H-1-benzopyran-2,1′-cyclobutane]-4-yl)-3-(3-methylisoquinolin-5-yl)urea] | > 50 | 469
Cc1cc2c(NC(=O)NC3CC4(CCC4)Oc4ccc(Cl)cc43)cccc2cn1 (racemic) [Example 73, (±) 1-(6-Chloro-3,4-dihydro-spiro[2H-1-benzopyran-2,1′-cyclobutane]-4-yl)-3-(3-methylisoquinolin-5-yl)urea] | > 50 | 1260
Cc1nccc2c(NC(=O)NC3CC4(CCC4)Oc4ccc(Cl)cc43)cccc12 (racemic) [Example 74, (±) 1-(6-Chloro-3,4-dihydro-spiro[2H-1-benzopyran-2,1′-cyclobutane]-4-yl-3-(1-methylisoquinolin-5-yl)urea] | > 50 | 917
Cc1nccc2c(NC(=O)NC3CC4(CCC4)Oc4ccc(F)cc43)cccc12 (racemic) [Example 75, (±) 1-(3,4-Dihydro-6-fluoro-spiro[2H-1-benzopyran-2,1′-cyclobutane]-4-yl)-3-(1-methylisoquinolin-5-yl)urea] | > 50 | 23
O=C(Nc1cccc2cnccc12)NC1CC2(CCC2)Oc2ccc([N+](=O)[O-])cc21 (racemic) [Example 77, (±) 1-(3,4-Dihydro-6-nitro-spiro[2H-1-benzopyran-2,1′-cyclobutane]-4-yl)-3-(isoquinolin-5-yl)urea] | > 50 | 463

Second part, the molecule after the results:

inhibition at 1 µM [%] | IC50 [nM] | Compound
< 50 |  | O=C(Nc1cccc2cnccc12)NC1CC2(CCC2)Oc2cc(O)ccc21 (racemic) [Example 46, (±) 1-(3,4-Dihydro-7-hydroxy-spiro[2H-1-benzopyran-2,1′-cyclobutane]-4-yl)-3-(isoquinolin-5-yl)urea]
> 50 | 0.21 | COc1ccc2c(c1)OC1(CCC1)CC2NC(=O)Nc1cccc2cnccc12 (racemic) [Example 47, (±) 1-(3,4-Dihydro-7-methoxy-spiro[2H-1-benzopyran-2,1′-cyclobutane]-4-yl)-3-(isoquinolin-5-yl)urea]
> 50 | 585 | COc1ccc2c(c1)C(NC(=O)Nc1cccc3cnccc13)CC1(CCC1)O2 (racemic) [Example 51, (±) 1-(3,4-Dihydro-6-methoxy-spiro[2H-1-benzopyran-2,1′-cyclobutane]-4-yl)-3-(isoquinolin-5-yl)urea]
> 50 | 15.8 | O=C(Nc1cccc2cnccc12)NC1CC2(CCC2)Oc2cc(OC3CCCC3)ccc21 (racemic) [Example 53, (±) 1-(7-Cyclopentyloxy-3,4-dihydro-spiro[2H-1-benzopyran-2,1′-cyclobutane]-4-yl)-3-(isoquinolin-5-yl)urea]
> 50 | 2.23 | O=C(Nc1cccc2cnccc12)NC1CC2(CCC2)Oc2cc(OC(F)F)ccc21 (racemic) [Example 54, (±) 1-(7-Difluoromethoxy-3,4-dihydro-spiro[2H-1-benzopyran-2,1′-cyclobutane]-4-yl)-3-(isoquinolin-5-yl)urea. Hydrochloride]
> 50 | 14.4 | Cc1cc2c(NC(=O)NC3CC4(CCC4)Oc4cc(OC(F)F)ccc43)cccc2cn1 (racemic) [Example 56, (±) 1-(7-Difluoromethoxy-3,4-dihydro-spiro[2H-1-benzopyran-2,1′-cyclobutane]-4-yl)-3-(3-methylisoquinolin-5-yl)urea]
< 50 |  | O=C(Nc1cccc2cnccc12)NC1CC2(CCC2)Oc2c(OC(F)F)cccc21 (racemic) [Example 62, (±) 1-(3,4-Dihydro-8-difluoromethoxy-spiro[2H-1-benzopyran-2,1′-cyclobutane]-4-yl)-3-(isoquinolin-5-yl)urea]
> 50 | 307 | O=C(Nc1cccc2cnccc12)NC1CC2(CCC2)Oc2ccc(Cl)cc21 (racemic) [Example 63, (±) 1-(6-Chloro-3,4-dihydro-spiro[2H-1-benzopyran-2,1′-cyclobutane]-4-yl)-3-(isoquinolin-5-yl)urea]
> 50 | 404 | O=C(Nc1cccc2cnccc12)NC1CC2(CCC2)Oc2ccc(Br)cc21 (racemic) [Example 65, (±) 1-(6-Bromo-3,4-dihydro-spiro[2H-1-benzopyran-2,1′-cyclobutane]-4-yl)-3-(isoquinolin-5-yl)urea]
